Source: US4264576A, “Contraceptive methods and compositions” (Eli Lilly and Company, priority 1980, dated 1981)

Tests used:
[1] = Drug release rate from dimethylpolysiloxane rubber compositions in calcium-free Ringers solution; type: physicochemical; details: footnote of Table II; Calc. on basis of hyaluronidase inhibition
Experimental: An appropriate sample of a dimethylpolysiloxane rubber composition in which is incorporated the test compound is placed in a suitable amount of calcium-free Ringers solution, and the sample and solution are incubated together at 37° C. for a period of time (e.g. 24 hours). […] The equivalent amount of test compound in the removed solution is calculated from standard inhibition curves in which hyaluronidase inhibition is plotted against concentration of the test compound. The calculated result are expressed as micrograms of test compound released per day.
The above test may be repeated for an extended period of time, for example, for 1 day to 360 days, or more, by adding fresh calcium-free Ringer's solution after each removal of the solution for assay.
The sample weight was 4 mg. and the amount of added solution was 1 ml.

[2] = tested on: Dutch Belted virgin rabbits; test: Antifertility effects in vivo by intrauterine administration; design: species or system rabbit; details: 40-mg dimethylpolysiloxane rubber rod, 10% W/W
Experimental: Dutch Belted virgin rabbits, each weighing 3-4 pounds, are randomly selected and anesthetized with sodium pentobarbital (50 μg./ml.) administered by IV drip. The uterus of each animal is exposed and a 40-mg. sample in the shape of a rod (3 mm. in diameter) of dimethylpolysiloxane rubber (as prepared in Example 3) containing 10% W/W of sodium sulfopropyl n-dodecanoate is sutured into the right uterine horn at a random location in between the cervix and the utero-tubal junction. The left horn is left untreated to serve as control. The rubber rod is placed into the uterine horn by passing a curved needle through it and through the uterine wall pulling the rod into the uterine lumen. The entry is closed by suturing. Animals (blank) are similarly treated using unmedicated dimethylpolysiloxane rubber to serve as a second group of controls. The animals are given 300,000 units of Duracillin® per day (in four doses) and are allowed to recover for 14 days. Each animal is bred to a male of proven fertility and is immediately given a dose (IV) of appropoximately 100 units of human chorionic gonadotropin (HCG) to facilitate ovulation. Fourteen days after breeding, the animal are sacrificed by cervical dislocation and the uterine horns are examined for implanted embryos. The number of embryos per uterine horn are recorded.

[3] = tested on: virgin dutch belted female rabbit; test: Antifertility effects in vivo by intravaginal administration; details: 1 ml of equal volumes Ky-jelly and 10 mg./ml. solution, before breeding, 6 animals
Experimental: Equal volumes of Ky-jelly® and either Ca^++ free Ringer's solution or a 10 mg./ml. solution of the compound to be tested in Ca^++ free Ringer's solution are well mixed. One milliliter of this is placed into the vagina of a virgin dutch belted female rabbit using a syringe. The female is then immediately bred to a fertile buck. The female is injected I.V. with 100 units of human chorionic gonadotrophin to assure a good ovulation rate.
After approximately 14 days the females are sacrificed by cervical dislocation and the genital system examined for the number of embryos.

[4] = tested on: cumulus oophorus; test: Removal of cumulus oophorus from ova by hyaluronidase, in vitro; type: cell-based, rabbit; details: 10 μl of 10 mg./ml. compound solution in 1 ml calcium-free Ringer's solution, 37° C.
Experimental: In the absence of sodium sulfopropyl dodecanoate, complete removal of the cumulus oophorus is observed.
Female rabbits are given 100 units of pregnant mares serum (PMS), IM, and 134 units of HCG, IV. After 13 hours the animals are sacrificed, and the ovaries are excised. The ovaries are submerged in calcium-free Ringer's solution containing 20% rabbit serum which had been heated to 55° C. for 20 minutes. Ova with cumulus intact are removed and placed in calcium-free Ringer's solution for incubation at 37° C. Hyaluronidase (10 μl.) of a 10 mg./ml. solution in calciumfree Ringer's solution is added to 20 ova in 1 ml. of the incubation medium. To 10 ova in the same medium is added 10 μl. of a solution of sodium sulfopropyl n-dodecanoate (10 mg./ml.) in calcium-free Ringer's solution. To 10 other ova in the same media is added 10 μl. of calcium-free Ringer's solution as control. The mixtures are incubated at 37° C., and the cumulus oophorus is examined at 15 minute intervals with an American Optical stereomicroscope. In the absence of sodium sulfopropyl n-dodecanoate, the cumulus oophorus is completely removed.

[5] = target: acrosin (Homo sapiens, UniProt P10323); test: Acrosin inhibition in vitro; type: biochemical; details: statement in words
acrosin, sequence (P10323 20-421, species assumed): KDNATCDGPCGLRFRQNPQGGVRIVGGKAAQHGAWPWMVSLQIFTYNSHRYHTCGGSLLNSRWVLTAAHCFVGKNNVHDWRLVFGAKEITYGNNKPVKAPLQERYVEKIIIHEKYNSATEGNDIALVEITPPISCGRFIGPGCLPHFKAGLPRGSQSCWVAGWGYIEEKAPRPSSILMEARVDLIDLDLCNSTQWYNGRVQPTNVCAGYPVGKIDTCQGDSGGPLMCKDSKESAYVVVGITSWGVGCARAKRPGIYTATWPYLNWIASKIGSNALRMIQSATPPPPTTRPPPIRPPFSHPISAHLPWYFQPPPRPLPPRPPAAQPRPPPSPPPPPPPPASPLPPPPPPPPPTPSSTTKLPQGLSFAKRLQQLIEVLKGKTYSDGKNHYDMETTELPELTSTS

CCCCCCCCCCCC(=O)OCCCS(=O)(=O)O.[Na] [CH3 (CH2)10, n=3, sodium sulfopropyl dodecanoate]
Release rate from dimethylpolysiloxane, in vitro [1]: 1 to 3 mg/day
Total No. of embryos ([2]; in right uterine horn, 11 horns, 14 days after breeding): 1
[drawing 14] (number of embryos per uterine horn) ([2]; in uterine horn, p < .001 compared to untreated and to blank): 0.09
Avg. No. of Embryos per animal [3]: 0
No. of embryos ([3]; approximately 14 days): 0
state of the cumulus oophorus of rabbit ova incubated with hyaluronidase [4]: the cumulus oophorus remain substantially intact
state of the cumulus oophorus of rabbit ova incubated with hyaluronidase ([4]; listed as sodium sulfopropyl n-dodecanoate): the cumulus remains substantially intact

CCCC/C=C/CCCCCCCC(=O)OCCCS(=O)(=O)O [trans- CH3 (CH2)3 CHCH(CH2) 7, n=3, sodium sulfopropyl myristelaidate]
anti-acrosin activity (inhibition in vitro of the action of acrosin) [5]: anti-acrosin activity

sodium sulfopropyl 16-methylheptadecanoate
anti-acrosin activity (inhibition in vitro of the action of acrosin) [5]: anti-acrosin activity

sodium sulfopropyl 15-methylheptadecanoate
anti-acrosin activity (inhibition in vitro of the action of acrosin) [5]: anti-acrosin activity

CCCC/C=C\CCCCCCCC(=O)OCCCS(=O)(=O)O.[Na] [cis- CH3 (CH2)3 CHCH(CH2)7, n=3, sodium sulfopropyl myristoleate]
anti-acrosin activity (inhibition in vitro of the action of acrosin) [5]: anti-acrosin activity
